# Data reported in patent US20230085307A1, “PYRIDAZINONE COMPOUND AND HERBICIDE” (NISSAN CHEMICAL CORPORATION, priority 2019, published 2023).
# What was measured:
# Chinese sprangletop = test: Test Example 3: herbicidal effect by foliage application, Wagner pot (Table 18, symbol D); format: in vivo, chinese sprangletop (Leptochloa chinensis); details: for herbicidal effect on Chinese sprangletop (D): 320 g/ha; for herbicidal effect on D: Chinese sprangletop: amount of applied herbicide 320 g/ha
# Description: (§1) [Test Example 3] Herbicidal Effect Test by Foliage Application After alluvial soil was placed into 1/10000 are of Wagner pot, water was poured and mixed to form a submerged condition having a water depth of 0.1 cm to 0.5 cm. Seeds of barnyard grass, Chinese sprangletop, rice flat sedge, and rice were sowed and the pot was placed in a greenhouse at 25° C. to 30° C. for growth of the plants. After 14-day growth of the plants, the emulsion agent of the compound of the present invention prepared according to Formulation Example 2 was diluted with water so as to achieve a predetermined herbicide amount, and the diluted emulsion agent was uniformly applied to a foliage part with a small-sized spray. Three weeks after the herbicide application, the effect of the herbicide on each plant was evaluated according to the criteria of Test Example 1.
# barnyard grass [1] = test: Test Example 3: herbicidal effect by foliage application, Wagner pot (Table 18, symbol H); format: in vivo, barnyard grass (Echinochloa crus-galli); details: for herbicidal effect on barnyard grass (H): 320 g/ha; for herbicidal effect on H: barnyard grass: amount of applied herbicide 320 g/ha
# Description: as §1
# rice flat sedge = test: Test Example 3: herbicidal effect by foliage application, Wagner pot (Table 18, symbol E); format: in vivo, rice flat sedge (Cyperus iria); details: for herbicidal effect on rice flat sedge (E): 320 g/ha; for herbicidal effect on E: rice flat sedge: amount of applied herbicide 320 g/ha
# Description: as §1
# velvetleaf = test: Test Example 5: herbicidal effect by foliage application, plastic box (Table 20, symbol M); format: in vivo, velvetleaf (Abutilon theophrasti); details: foliage application, 320 g/ha, three weeks after application
# From the text: (§2) [Test Example 5] Herbicidal Effect Test by Foliage Application
# (§3) Sterilized diluvial soil was placed in a plastic box having a length of 21 cm, a width of 13 cm, and a depth of 7 cm. The seeds of each of southern crabgrass, green foxtail, barnyard grass, wild oat, blackgrass, Italian ryegrass, windgrass, velvetleaf, redroot pigweed, lambsquarters, chickweed, false cleavers, persian speedwell, corn, soybean, rice, wheat, beet, and rapeseed were sowed in a spot-like manner and covered with the soil having a thickness of about 1.5 cm. Thereafter, the plants were grown in a greenhouse at 25° C. to 30° C. After 14-day growth of the plants, the emulsion agent of the compound of the present invention prepared according to Formulation Example 2 was diluted with water so as to achieve a predetermined herbicide amount, and the diluted emulsion agent was uniformly applied to a foliage part with a small-sized spray. Three weeks after the herbicide application, the effect of the herbicide on each plant was evaluated according to the criteria of Test Example 1.
# barnyard grass [2] = test: Test Example 5: herbicidal effect by foliage application, plastic box (Table 20, symbol H); format: in vivo, barnyard grass (Echinochloa crus-galli); details: foliage application, 320 g/ha, three weeks after application
# From the text: as §2, §3
# Italian ryegrass = test: Test Example 5: herbicidal effect by foliage application, plastic box (Table 20, symbol K); format: in vivo, Italian ryegrass (Lolium multiflorum); details: foliage application, 320 g/ha, three weeks after application
# From the text: as §2, §3
# blackgrass = test: Test Example 5: herbicidal effect by foliage application, plastic box (Table 20, symbol J); format: in vivo, blackgrass (Alopecurus myosuroides); details: foliage application, 320 g/ha, three weeks after application
# From the text: as §2, §3
# lambsquarters = test: Test Example 5: herbicidal effect by foliage application, plastic box (Table 20, symbol O); format: in vivo, lambsquarters (Chenopodium album); details: foliage application, 320 g/ha, three weeks after application
# From the text: as §2, §3
# southern crabgrass = test: Test Example 5: herbicidal effect by foliage application, plastic box (Table 20, symbol F); format: in vivo, southern crabgrass (Digitaria ciliaris); details: foliage application, 320 g/ha, three weeks after application
# From the text: as §2, §3
# persian speedwell = test: Test Example 5: herbicidal effect by foliage application, plastic box (Table 20, symbol R); format: in vivo, Persian speedwell (Veronica persica); details: foliage application, 320 g/ha, three weeks after application
# From the text: as §2, §3
# windgrass = test: Test Example 5: herbicidal effect by foliage application, plastic box (Table 20, symbol L); format: in vivo, windgrass (Apera spica-venti); details: foliage application, 320 g/ha, three weeks after application
# From the text: as §2, §3
# wild oat = test: Test Example 5: herbicidal effect by foliage application, plastic box (Table 20, symbol I); format: in vivo, wild oat (Avena fatua); details: foliage application, 320 g/ha, three weeks after application
# From the text: as §2, §3
# green foxtail = test: Test Example 5: herbicidal effect by foliage application, plastic box (Table 20, symbol G); format: in vivo, green foxtail (Setaria viridis); details: foliage application, 320 g/ha, three weeks after application
# From the text: as §2, §3
structure (smiles),measurement,setting,value
COc1cc2sc(-c3ccc(C#N)cc3)c(-c3c(O)c(C)nn(C)c3=O)c2cc1Cl [5-074],herbicidal effect on Chinese sprangletop (D),Chinese sprangletop,5 (Herbicidal rate of 90% or more (almost completely withered))
same,herbicidal effect on barnyard grass (H),barnyard grass [1],3 (Herbicidal rate of 40% or more and less than 70%)
same,herbicidal effect on rice flat sedge (E),rice flat sedge,3 (Herbicidal rate of 40% or more and less than 70%)
Cc1nn(C)c(=O)c(-c2c(-c3cnc(Cl)s3)sc3ccc(F)cc23)c1O [2-394],herbicidal effect on D: Chinese sprangletop,Chinese sprangletop,3 (Herbicidal rate of 40% or more and less than 70%)
same,herbicidal effect on H: barnyard grass,barnyard grass [1],5 (Herbicidal rate of 90% or more (almost completely withered))
same,herbicidal effect on E: rice flat sedge,rice flat sedge,5 (Herbicidal rate of 90% or more (almost completely withered))
CCCC(=O)Oc1c(OC)nn(C)c(=O)c1-c1c(-c2ccc(Oc3ccccc3)cc2)sc2ccccc12 [1-165],"herbicidal effect on D (Chinese sprangletop), rating 0-5",Chinese sprangletop; 80 g/ha,0 (Herbicidal rate of 5% or less (almost no effect))
same,"herbicidal effect on H (barnyard grass), rating 0-5",barnyard grass [1]; 80 g/ha,2 (Herbicidal rate of 20% or more and less than 40%)
same,"herbicidal effect on E (rice flat sedge), rating 0-5",rice flat sedge; 80 g/ha,0 (Herbicidal rate of 5% or less (almost no effect))
Cc1nn(C)c(=O)c(-c2c(-c3ccc(OC(F)F)cc3)sc3c(Cl)cccc23)c1O [4-074],herbicidal effect on Chinese sprangletop (D),Chinese sprangletop,0 (Herbicidal rate of 5% or less (almost no effect))
same,herbicidal effect on barnyard grass (H),barnyard grass [1],4 (Herbicidal rate of 70% or more and less than 90%)
same,herbicidal effect on rice flat sedge (E),rice flat sedge,3 (Herbicidal rate of 40% or more and less than 70%)
COc1ccccc1-c1oc2ccc(Cl)cc2c1-c1c(O)c(C)nn(C)c1=O [9-001],herbicidal effect on velvetleaf (M),velvetleaf,2 (Herbicidal rate of 20% or more and less than 40%)
same,herbicidal effect on barnyard grass (H),barnyard grass [2],0 (Herbicidal rate of 5% or less (almost no effect))
same,herbicidal effect on Italian ryegrass (K),Italian ryegrass,0 (Herbicidal rate of 5% or less (almost no effect))
same,herbicidal effect on blackgrass (J),blackgrass,0 (Herbicidal rate of 5% or less (almost no effect))
same,herbicidal effect on lambsquarters (O),lambsquarters,3 (Herbicidal rate of 40% or more and less than 70%)
same,herbicidal effect on southern crabgrass (F),southern crabgrass,0 (Herbicidal rate of 5% or less (almost no effect))
same,herbicidal effect on persian speedwell (R),persian speedwell,0 (Herbicidal rate of 5% or less (almost no effect))
same,herbicidal effect on windgrass (L),windgrass,0 (Herbicidal rate of 5% or less (almost no effect))
same,herbicidal effect on wild oat (I),wild oat,0 (Herbicidal rate of 5% or less (almost no effect))
same,herbicidal effect on green foxtail (G),green foxtail,0 (Herbicidal rate of 5% or less (almost no effect))
CCCC(=O)Oc1c(C)nn(C)c(=O)c1-c1c(-c2ccccc2O)sc2c(Cl)cccc12 [4-080],herbicidal effect on Chinese sprangletop (D),Chinese sprangletop,3 (Herbicidal rate of 40% or more and less than 70%)
same,herbicidal effect on barnyard grass (H),barnyard grass [1],2 (Herbicidal rate of 20% or more and less than 40%)
same,herbicidal effect on rice flat sedge (E),rice flat sedge,4 (Herbicidal rate of 70% or more and less than 90%)
Cc1nn(C)c(=O)c(-c2c(-c3ccc(C(F)(F)F)cc3Cl)sc3ccc(F)cc23)c1O [2-356],herbicidal effect on D: Chinese sprangletop,Chinese sprangletop,4 (Herbicidal rate of 70% or more and less than 90%)
same,herbicidal effect on H: barnyard grass,barnyard grass [1],4 (Herbicidal rate of 70% or more and less than 90%)
same,herbicidal effect on E: rice flat sedge,rice flat sedge,4 (Herbicidal rate of 70% or more and less than 90%)
